From the Kinase Knowledgebase extract (Sharma et al. 2016) come the findings set out here.

The target in the experiment is PIK3CD (Human) (UniProt O00329). The experiment is described as follows: Enzyme Assay.
Sequence of PIK3CD (Human) (O00329 whole entry, looked up): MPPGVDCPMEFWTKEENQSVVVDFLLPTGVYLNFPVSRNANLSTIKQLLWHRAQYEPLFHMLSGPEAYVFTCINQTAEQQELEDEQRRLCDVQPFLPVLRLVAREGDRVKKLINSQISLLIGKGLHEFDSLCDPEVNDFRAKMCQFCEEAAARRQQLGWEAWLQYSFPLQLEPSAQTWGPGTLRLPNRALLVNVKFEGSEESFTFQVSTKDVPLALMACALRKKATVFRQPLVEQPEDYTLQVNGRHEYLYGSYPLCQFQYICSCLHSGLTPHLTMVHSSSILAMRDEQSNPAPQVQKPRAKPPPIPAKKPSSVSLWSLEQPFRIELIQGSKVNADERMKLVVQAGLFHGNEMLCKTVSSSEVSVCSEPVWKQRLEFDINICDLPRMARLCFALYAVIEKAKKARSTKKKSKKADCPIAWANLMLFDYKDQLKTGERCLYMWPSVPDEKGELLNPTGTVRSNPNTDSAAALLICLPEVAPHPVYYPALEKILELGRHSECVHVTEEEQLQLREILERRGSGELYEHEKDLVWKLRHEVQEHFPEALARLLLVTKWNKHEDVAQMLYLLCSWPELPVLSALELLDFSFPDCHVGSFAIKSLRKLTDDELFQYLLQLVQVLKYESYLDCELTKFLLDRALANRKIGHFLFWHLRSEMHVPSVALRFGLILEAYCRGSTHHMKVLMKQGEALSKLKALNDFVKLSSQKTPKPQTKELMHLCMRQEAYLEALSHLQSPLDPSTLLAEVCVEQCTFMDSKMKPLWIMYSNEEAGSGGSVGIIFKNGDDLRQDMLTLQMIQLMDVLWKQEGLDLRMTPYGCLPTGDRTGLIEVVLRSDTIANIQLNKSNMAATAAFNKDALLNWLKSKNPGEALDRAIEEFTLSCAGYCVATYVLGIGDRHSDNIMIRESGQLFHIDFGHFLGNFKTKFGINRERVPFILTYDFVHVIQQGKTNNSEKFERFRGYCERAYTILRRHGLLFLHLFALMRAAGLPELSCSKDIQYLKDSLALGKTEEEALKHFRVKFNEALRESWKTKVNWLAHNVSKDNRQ
For the compound `C[C@H](Nc1nc(N)nc(N)c1C#N)c1nc2cccc(Br)c2c(=O)n1-c1ccccc1`, the IC50 was at most 1 nM.

The compound `Cc1ccc(F)c2c(=O)n(-c3cccc(C#N)c3)c([C@H](C)Nc3nc(N)nc(N)c3C#N)nc12` registered an IC50 of 10 to 50 nM.

For `C[C@H](Nc1nc(N)nc(N)c1C#N)c1nc2c(C#N)cccc2c(=O)n1-c1ccccc1`, the IC50 was 1 to 10 nM.

As to `C[C@H](Nc1nc(N)nc(N)c1C#N)c1nc2cccc(S(C)(=O)=O)c2c(=O)n1-c1c(F)cccc1F`, the IC50 is 1 to 10 nM.

As to `C[C@H](Nc1ncnc(N)c1C#N)c1nc2cccc(Cl)c2c(=O)n1-c1ccccc1`, the IC50 was at most 1 nM.

In the case of `C[C@H](Nc1nc(N)nc(N)c1C#N)c1nc2c(F)ccc(Cl)c2c(=O)n1-c1cc(F)cc(F)c1`, the IC50 was at most 1 nM.

In the case of `C[C@H](Nc1nc(N)nc(N)c1C#N)c1nc2cccc(C(N)=O)c2c(=O)n1-c1cc(F)cc(F)c1`, the IC50 lay in the range of 10 to 50 nM.

Regarding `C[C@H](Nc1nc(N)nc(N)c1C#N)c1nc2ccc(F)cc2c(=O)n1-c1cccc(Cl)c1`, the IC50 lay in the range of 1 to 10 nM.

For `C[C@H](Nc1nc(N)nc(N)c1C#N)c1nc2cccc(Cl)c2c(=O)n1-c1cc(Cl)cc(C(F)F)c1`, the IC50 lay within 1 to 10 nM.

With `C[C@H](Nc1nc(N)nc(N)c1C#N)c1nc2cccc(Cl)c2c(=O)n1-c1cc(F)cc(F)c1`, the IC50 was at most 1 nM.

Consider `C[C@H](Nc1nc(N)nc(N)c1C#N)c1nc2cccc(F)c2c(=O)n1-c1cc(F)cc(F)c1`, for which the IC50 is 1 to 10 nM.

In turn, `C[C@H](Nc1nc(N)nc(N)c1C#N)c1nc2c(C#N)cccc2c(=O)n1-c1cccc(C(F)F)c1` came in with an IC50 of 1 to 10 nM.

With `C[C@H](Nc1nc(N)nc(N)c1C#N)c1nc2ccc(F)c(F)c2c(=O)n1-c1cc(F)cc(F)c1`, the IC50 was 10 to 50 nM.

In turn, `C[C@H](Nc1nc(N)nc(N)c1C#N)c1nc2cccc(F)c2c(=O)n1-c1cc(Cl)cc(Cl)c1` returned an IC50 of 10 to 50 nM.

Compound `CC[C@H](Nc1nc(N)nc(N)c1C#N)c1nc2cccc(Cl)c2c(=O)n1-c1cc(F)cc(F)c1` yielded an IC50 of 1 to 10 nM.

As for `C[C@H](Nc1nc(N)nc(N)c1C#N)c1nc2ccc(F)c(Cl)c2c(=O)n1-c1cc(F)cc(C(F)F)c1`, the IC50 is 10 to 50 nM.

`C[C@H](Nc1nc(N)nc(N)c1C#N)c1nc2ccc(F)cc2c(=O)n1-c1cc(F)cc(F)c1` had an IC50 of 1 to 10 nM.

For the compound `C[C@H](Nc1nc(N)nc(N)c1Cl)c1cc2cccc(Cl)c2c(=O)n1-c1ccccc1`, the IC50 is at most 1 nM.

With `COC[C@@H](Nc1nc(N)nc(N)c1C#N)c1nc2cccc(Cl)c2c(=O)n1-c1cc(F)cc(F)c1`, the IC50 lay in the range of 1 to 10 nM.

`C[C@H](Nc1nc(N)nc(N)c1C#N)c1nc2c(Cl)cccc2c(=O)n1-c1cc(F)cc(F)c1` returned an IC50 of 1 to 10 nM.

Turning to `Cc1ccc(F)c2c(=O)n(-c3ccccc3)c([C@H](C)Nc3nc(N)nc(N)c3C#N)nc12`, the IC50 lay in the range of 1 to 10 nM.

With `C[C@H](Nc1nc(N)nc(N)c1C#N)c1nc2c(C#N)cc(F)cc2c(=O)n1-c1cccc(F)c1`, the IC50 fell in the range of 1 to 10 nM.

As to `Cc1cccc2c(=O)n(-c3cc(F)cc(F)c3)c([C@H](C)Nc3nc(N)nc(N)c3C#N)nc12`, the IC50 lay in the range of 1 to 10 nM.

The compound `C[C@H](Nc1nc(N)nc(N)c1C#N)c1nc2cccc(Cl)c2c(=O)n1-c1cccc(F)c1` came in with an IC50 of at most 1 nM.

`CC(C)C[C@H](Nc1nc(N)nc(N)c1C#N)c1nc2cccc(Cl)c2c(=O)n1-c1cccc(C#N)c1` had an IC50 of 10 to 50 nM.

In turn, `CC[C@H](Nc1nc(N)nc(N)c1C#N)c1nc2c(Cl)ccc(F)c2c(=O)n1-c1cc(F)cc(F)c1` returned an IC50 of 10 to 50 nM.

Regarding `Cc1ccc(F)c2nc([C@H](C)Nc3nc(N)nc(N)c3C#N)n(-c3cc(F)cc(F)c3)c(=O)c12`, the IC50 was at most 1 nM.

In turn, `C[C@H](Nc1nc(N)nc(N)c1C#N)c1nc2cccc(Cl)c2c(=O)n1-c1cccc(Cl)c1` yielded an IC50 of at most 1 nM.

Regarding `CC[C@H](Nc1nc(N)nc(N)c1C#N)c1nc2ccccc2c(=O)n1-c1cc(F)cc(F)c1`, the IC50 was in the range of 10 to 50 nM.

In the case of `C[C@H](Nc1nc(N)nc(N)c1Cl)c1nc2c(F)ccc(Cl)c2c(=O)n1-c1ccccc1`, the IC50 is 1 to 10 nM.

Turning to `C[C@H](Nc1nc(N)nc(N)c1C#N)c1nc2cccc(C#N)c2c(=O)n1-c1ccccc1`, the IC50 fell in the range of 1 to 10 nM.

`C[C@H](Nc1nc(N)nc(N)c1Cl)c1nc2cccc(S(C)(=O)=O)c2c(=O)n1-c1cccc(F)c1` displayed an IC50 of 1 to 10 nM.

For `CC(C)C[C@H](Nc1nc(N)nc(N)c1C#N)c1nc2cccc(Cl)c2c(=O)n1-c1cc(F)cc(F)c1`, the IC50 fell in the range of 1 to 10 nM.

Regarding `C[C@H](Nc1nc(N)nc(N)c1C#N)c1nc2cc(F)c(F)cc2c(=O)n1-c1cc(F)cc(F)c1`, the IC50 lay in the range of 10 to 50 nM.

`C[C@H](Nc1nc(N)nc(N)c1C#N)c1nc2ccc(F)cc2c(=O)n1-c1ccccc1` registered an IC50 of 1 to 10 nM.

The compound `C[C@H](Nc1nc(N)nc(N)c1C#N)c1nc2c(F)ccc(F)c2c(=O)n1-c1ccccc1` returned an IC50 of at most 1 nM.

Consider `CC[C@H](Nc1nc(N)nc(N)c1C#N)c1nc2c(F)cccc2c(=O)n1-c1cc(F)cc(F)c1`, for which the IC50 fell in the range of 1 to 10 nM.

With `COc1cccc(-n2c([C@H](C)Nc3nc(N)nc(N)c3C#N)nc3cccc(Cl)c3c2=O)c1`, the IC50 is at most 1 nM.

`C[C@H](Nc1nc(N)nc(N)c1C#N)c1nc2cccc(F)c2c(=O)n1-c1cccc(F)c1` displayed an IC50 of 1 to 10 nM.

`CC(C)[C@H](Nc1nc(N)nc(N)c1C#N)c1nc2cccc(Cl)c2c(=O)n1-c1cc(F)cc(F)c1` returned an IC50 of 1 to 10 nM.

Turning to `C[C@H](Nc1nc(N)nc(N)c1C#N)c1nc2cccc(S(C)(=O)=O)c2c(=O)n1-c1cc(F)cc(C(F)F)c1`, the IC50 fell in the range of 10 to 50 nM.

Take `C[C@H](Nc1nc(N)nc(N)c1C#N)c1nc2ccc(F)c(Cl)c2c(=O)n1-c1cccc(C#N)c1`: the IC50 is 10 to 50 nM.

On to `C[C@H](Nc1nc(N)nc(N)c1C#N)c1nc2c(F)ccc(F)c2c(=O)n1-c1cccc(F)c1`, for which the IC50 fell in the range of 1 to 10 nM.

On to `CC[C@H](Nc1nc(N)nc(N)c1C#N)c1nc2cccc(F)c2c(=O)n1-c1cc(F)cc(F)c1`, for which the IC50 was in the range of 1 to 10 nM.

The compound `C[C@H](Nc1nc(N)nc(N)c1C#N)c1nc2cccc(S(C)(=O)=O)c2c(=O)n1-c1cccc(F)c1` registered an IC50 of 1 to 10 nM.

Compound `C[C@H](Nc1nc(N)nc(N)c1C#N)c1nc2cccc(C(F)F)c2c(=O)n1-c1cccc(C#N)c1` came in with an IC50 of 1 to 10 nM.

Regarding `Cc1ccc(F)c2c(=O)n(-c3cc(F)cc(C#N)c3)c([C@H](C)Nc3nc(N)nc(N)c3C#N)nc12`, the IC50 fell in the range of 10 to 50 nM.

With `C[C@H](Nc1nc(N)nc(N)c1C#N)c1nc2c(Cl)ccc(F)c2c(=O)n1-c1cc(F)cc(F)c1`, the IC50 lay in the range of 1 to 10 nM.

Consider `C[C@H](Nc1nc(N)nc(N)c1C#N)c1nc2cccc(Br)c2c(=O)n1-c1cccc(F)c1`, for which the IC50 is at most 1 nM.

The compound `C[C@H](Nc1nc(N)nc(N)c1C#N)c1nc2cccc(Cl)c2c(=O)n1-c1ccccc1` had an IC50 of at most 1 nM.

`CC[C@H](C)[C@H](Nc1nc(N)nc(N)c1C#N)c1nc2cccc(Cl)c2c(=O)n1-c1cc(F)cc(F)c1`: the IC50 was 1 to 10 nM.

Compound `CC[C@H](Nc1nc(N)nc(N)c1C#N)c1nc2c(F)ccc(F)c2c(=O)n1-c1cccc(C#N)c1` displayed an IC50 of 10 to 50 nM.

The compound `CC[C@H](Nc1nc(N)nc(N)c1C#N)c1nc2c(C)cccc2c(=O)n1-c1cc(F)cc(F)c1` came in with an IC50 of 10 to 50 nM.

With `CCC[C@H](Nc1nc(N)nc(N)c1C#N)c1nc2cccc(F)c2c(=O)n1-c1cc(F)cc(F)c1`, the IC50 was in the range of 1 to 10 nM.

The compound `CC[C@H](Nc1nc(N)nc(N)c1C#N)c1nc2c(F)ccc(F)c2c(=O)n1-c1cc(F)cc(F)c1` came in with an IC50 of 10 to 50 nM.
